Assay [1] concerns human colon adenocarcinoma cells HT-29. Nature of the assay: Colon carcinoma HT-29 xenograft model, tumour growth. Type of assay: in vivo, CD-1 female nude mice. As for the experimental part: The ability of compound 3 to inhibit colon tumour growth in vivo was tested as follows. CD-1 female nude mice (7 mice per treatment group, 6-7 weeks) were injected intraperitoneally with human colon adenocarcinoma cells HT-29 cells (3×10^6 cells in 0.1 ml PBS). Treatment of the mice with vehicle or 50 mg/kg/d of compound 3 was initiated 5 days post-inoculation (size of tumours=20-40 mm^3) for 7-day cycles of five days followed by a 2 day break for 5 weeks. The size of the tumours was measured over the course of the experiment using calipers, and the weight of the tumours was measured after the animals were sacrificed.
The ability of compounds 3, 5, and 7 to inhibit colon carcinoma cell growth in vivo was tested in the mouse xenograft model as described in Example 26. […]
The tumor regression efficacy of compound 3 was assessed in compound 3-treated HT-29-transplanted athymic mice (FIG. 54A), and correlated with gene expressions of MTF-1, KLF4 and Cyclin D1 in HT-29 xenograft tissues (FIG. 54B). […] The tumor size was measured during the course of treatment using calipers (FIG. 54A). […] The tumor tissues were excised, frozen immediately and stored at −80° C. until RNA extraction and gene expression was analyzed by RT-PCR (FIG. 54B). […]

Assay [2] has as its system 12 human tumour cell lines. Nature of the assay: Hollow fiber assay. Type of assay: in vivo, athymic mice. Particulars: for net cell kill: cell lines with net cell kill. The source says: For example, the in vivo activity of candidate compounds can also be tested using the Hollow Fiber Assay (Hollingshead, M., et al., (1995) Life Sciences 57:131-141; and Decker et al., Eur. J. of Cancer 40: 821-826 (2004)). In this assay, cells growing in hollow fibers (polyvinylidine fluoride, PVDF) are implanted in various body compartments of mice. A standard panel of 12 tumour cell lines can be used for the hollow fiber screening of candidate compounds which have shown activity in vitro. These cell lines may include NCI-H23, NCI-H522, MDA-MB-231, MDA-MB-435, SW-620, COLO 205, LOX-IMVI, UACC-62, OVCAR-3, OVCAR-5, U251 and SF-295. In addition, alternate lines such as those described in the above in vitro section can be used for specialized testing of compounds. The cell lines are cultivated according to standard protocols, and fibers are prepared by flushing cells into the PVDF fibers and sealing them at 2 cm intervals. The samples generated from these seals are placed into tissue culture medium and incubated at 37° C. in 5% CO2 for 24 to 48 hours prior to implantation. A total of 3 different tumour lines are prepared for each experiment so that each mouse receives 3 intraperitoneal implants (1 of each tumour line) and 3 subcutaneous implants (1 of each tumour line). On the day of implantation, samples of each tumour cell line preparation are quantitated for viable cell mass by, for example, a stable endpoint MTT assay, so that the time zero cell mass is known. Mice are treated with experimental agents starting on day 3 or 4 following fiber implantation and continuing daily for 4 days. Each agent is administered by intraperitoneal injection at 2 dose levels. The fibers are collected from the mice on the day following the fourth compound treatment and subjected to the stable endpoint MTT assay. The optical density of each sample is determined spectrophotometrically at 540 nm and the mean of each treatment group is calculated. The percent net growth for each cell line in each treatment group is calculated and compared to the percent net growth in the vehicle treated controls. A 50% or greater reduction in percent net growth in the treated samples compared to the vehicle control samples is considered a positive result. Each positive result is given a score of […] and all of the scores are totaled for a given compound. The maximum possible score for an agent is 96 (12 cell lines×2 sites×2 dose levels×2 [score]).
A candidate compound that is screened initially in the hollow fiber assay may subsequently be tested in a xenograft model if it has a combined ip+sc score of 20 or greater, a sc score of 8 or greater, or produces cell kill of any cell line at either dose level evaluated. This scoring system has been validated by DCTDC statisticians in CTEP to represent a level of detection expected to score current “standard” agents as active.
The in vivo efficacy of compounds according to Formula I was tested by determining the efficacy of compound 3 in the hollow fiber assay. This assay is described in Decker et al., Eur. J. of Cancer 40: 821-826 (2004), and was carried out by implanting 12 human tumour cell lines (Breast; MDA-MB-231, MDA-MB-435. Glioma; U251, SF-295. Ovarian; OVCAR-3, OVCAR-5. Colon; COLO-205, SW-620. Melanoma; LOX-IMVI, UACC-62 and Lung; NCI-H23, NCI-H522) into athymic mice as follows. Cell cultures were cultivated in RPMI-1640 containing 10% FBS and 2 mM glutamine. […]

For a further assay, the system named is KLF5. As to the kind of experiment: KLF5 gene expression in HT-29 cells, RT-PCR. Type of assay: cell-based, human. The conditions noted are these: HT-29, 1 μM, after 4 hr. Here is the method: HT-29 cells were treated with 1 μM compound 3 for indicated time (FIG. 41B). Total RNA was extracted and gene expression level was determined by RT-PCR.

“Also recorded” adds a separate entry of the source.

As to `Cc1[nH]c2ccccc2c1-c1nc2c3cccnc3c3ncccc3c2[nH]1` [Compound 3], the “tumour growth (size and weight)” value in assay [1] (50 mg/kg/d, five days on 2 off, 5 weeks) is recorded as “able to inhibit tumour growth”. Also, the tumor size result in assay [1] (100 mg/kg i.p., 5 days then 10 days interval, 2 cycles) is “Significant reduction in tumor size”. In assay [2] (2 dosages, 4 days treatment), this molecule had an ip score of 22. The same molecule returned a sc score in assay [2] (2 dosages, 4 days treatment) of 10. The values for the net cell kill result in assay [2] and in assay [2] (listed as compound 3) were “positive cell killing; also recorded: one or more” and “positive cell kill”, respectively. Also, the total score in assay [2] (ip + sc, maximum of 96) turned out to be 32. Moreover, the KLF5 gene expression result in the assay with KLF5 is on record as “decrease in KLF5 gene expression”.

Source of the values: patent publication US8148392B2, “2-indolyl imidazo [4,5-d] phenanthroline derivatives and their use in the treatment of cancer” (Lorus Therapeutics Inc., priority 2005, dated 2012).
